Experimental data taken from publication PMC10999543, “Identification of kinase modulators as host-directed therapeutics against intracellular methicillin-resistant Staphylococcus aureus” (Frontiers in Cellular and Infection Microbiology, 2024).
Like-named read-outs stand apart in the source and are kept apart here.

Legend:
intracellular MRSA = assay type: cell-based, Staphylococcus aureus; conditions: for %GFP+ rep 1 / z-scoreMRSA+ rep 1: replicate 1; for %GFP+ rep 2 / z-scoreMRSA+ rep 2: replicate 2; for %GFP+ rep 3 / z-scoreMRSA+ rep 3: replicate 3; for z-scoreMRSA+ mean: mean of 3 replicates
Procedure, shortened: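 HeLa cells infected with GFP-MRSA (MOI ~6.8), gentamicin-cleared, then incubated overnight at 37°C with inhibitors plus 5 µg/ml gentamicin; DMSO as negative control, triplicates. Flow cytometry gave % GFP-positive cells and cell count (viability surrogate); hits by plate z-score (MRSA ≤ -2, HeLa count ≥ -3).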

HeLa cells = assay: Compound screen by flow cytometry: HeLa cell count as surrogate readout of cell viability (z-scoreHeLa); assay type: cell-based, human; conditions: for cell count rep 1 / z-scoreHeLa rep 1: replicate 1; for cell count rep 2 / z-scoreHeLa rep 2: replicate 2; for cell count rep 3 / z-scoreHeLa rep 3: replicate 3; for z-scoreHeLa mean: mean of 3 replicates
Procedure, shortened: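 HeLa cells were infected with GFP-MRSA (mean MOI 6.8 ± 4.6) for 1 h, and extracellular bacteria were killed with 30 µg/ml gentamicin. Cells were then incubated overnight with kinase inhibitors in 5 µg/ml gentamicin, in triplicate against DMSO controls. Flow-cytometric cell count served as a viability surrogate, expressed as a plate z-score.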

[1] = PKIS compound screen raw data, MRSA-infected HeLa cells
[2] = PKIS compound screen, MRSA-infected HeLa cells
[3] = PKIS compound screen, Yes/No call (effect without cell death)
[4] = PKIS compound screen, Yes/No call on z-scoreMRSA+
[5] = PKIS compound screen raw data, HeLa cell count
[6] = PKIS compound screen, HeLa cell count
[7] = PKIS compound screen, Yes/No call on z-scoreHeLa
[8] = PKIS compound screen, Yes/No call
[9] = PKIS compounds raw data, MRSA-infected HeLa cells
[10] = PKIS compounds raw data, HeLa cell count
[11] = Yes/No: effect without cell death
[12] = compound screen, MRSA-infected HeLa cells
[13] = compound screen, HeLa cell count

SMILES	%GFP+ rep 1 (intracellular MRSA; [1]) [%]	%GFP+ rep 2 (intracellular MRSA; [1]) [%]	%GFP+ rep 3 (intracellular MRSA; [1]) [%]	z-scoreMRSA+ mean (intracellular MRSA; [2])	z-scoreMRSA+ rep 1 (intracellular MRSA; [2])	z-scoreMRSA+ rep 2 (intracellular MRSA; [2])	z-scoreMRSA+ rep 3 (intracellular MRSA; [2])	hit (intracellular MRSA; [3])	effect (intracellular MRSA; [4])	cell count rep 1 (HeLa cells; [5])	cell count rep 2 (HeLa cells; [5])	cell count rep 3 (HeLa cells; [5])	z-scoreHeLa mean (HeLa cells; [6])	z-scoreHeLa rep 1 (HeLa cells; [6])	%GFP+ rep 1 (intracellular MRSA; [9]) [%]	%GFP+ rep 2 (intracellular MRSA; [9]) [%]	%GFP+ rep 3 (intracellular MRSA; [9]) [%]	cell count rep 1 (HeLa cells; [10])	cell count rep 2 (HeLa cells; [10])	cell count rep 3 (HeLa cells; [10])	also measured
CS(=O)(=O)Nc1ccc(-c2cc(-c3ccccc3)cc(C(N)=O)c2N)cc1 [GSK586581A]	17.7	16.5	20.3	-0.17	-0.05	-0.61	0.16	No	No	20516	41456	41123	0.47	0.06							z-scoreHeLa rep 2 (HeLa cells; [6]): 1.24; z-scoreHeLa rep 3 (HeLa cells; [6]): 0.09; cell death (HeLa cells; [7]): No
Cc1cccc(-c2nc(Nc3cccc(C(N)=O)c3)c3ccccc3n2)n1 [GW876019X]	11.7	12.9	16.0	-1.70	-1.89	-1.78	-1.43	No	No	25839	10617	8442	-1.76	-0.74	29.2	27.1	31.8	2511	2183	3514	effect (intracellular MRSA; [8]): No; z-scoreMRSA+ mean (intracellular MRSA; PKIS compound screen): 0.49; z-scoreMRSA+ rep 1 (intracellular MRSA; PKIS compound screen): 0.42; z-scoreMRSA+ rep 2 (intracellular MRSA; PKIS compound screen): 0.20; z-scoreMRSA+ rep 3 (intracellular MRSA; PKIS compound screen): 0.84; z-scoreHeLa rep 2 (HeLa cells; [6]): -2.51; z-scoreHeLa rep 3 (HeLa cells; [6]): -2.04; cell death (HeLa cells; [8]): No; cell death (HeLa cells; [7]): No; z-scoreHeLa mean (HeLa cells; PKIS compound screen): -1.99; z-scoreHeLa rep 1 (HeLa cells; PKIS compound screen): -2.12; z-scoreHeLa rep 2 (HeLa cells; PKIS compound screen): -2.54; z-scoreHeLa rep 3 (HeLa cells; PKIS compound screen): -1.32
Cc1cccc(-c2nc(Nc3ccc4ncsc4c3)c3ccccc3n2)n1 [GW867588X]								No							25.8	27.2	28.0	7867	8486	9199	effect (intracellular MRSA; [8]): No; z-scoreMRSA+ mean (intracellular MRSA; PKIS compound screen): 0.0377; z-scoreMRSA+ rep 1 (intracellular MRSA; PKIS compound screen): -0.25; z-scoreMRSA+ rep 2 (intracellular MRSA; PKIS compound screen): 0.22; z-scoreMRSA+ rep 3 (intracellular MRSA; PKIS compound screen): 0.14; cell death (HeLa cells; [8]): No; z-scoreHeLa mean (HeLa cells; PKIS compound screen): 1.67; z-scoreHeLa rep 1 (HeLa cells; PKIS compound screen): 1.09; z-scoreHeLa rep 2 (HeLa cells; PKIS compound screen): 1.64; z-scoreHeLa rep 3 (HeLa cells; PKIS compound screen): 2.28
Cn1cc(C=C2C(=O)Nc3cccnc32)c2ccccc21 [GW441756X]								No							12.3	12.1	11.5	4844	4695	10080	effect (intracellular MRSA; [8]): No; z-scoreMRSA+ mean (intracellular MRSA; PKIS compound screen): -0.68; z-scoreMRSA+ rep 1 (intracellular MRSA; PKIS compound screen): -0.28; z-scoreMRSA+ rep 2 (intracellular MRSA; PKIS compound screen): -0.47; z-scoreMRSA+ rep 3 (intracellular MRSA; PKIS compound screen): -1.30; cell death (HeLa cells; [8]): No; z-scoreHeLa mean (HeLa cells; PKIS compound screen): 0.63; z-scoreHeLa rep 1 (HeLa cells; PKIS compound screen): 0.06; z-scoreHeLa rep 2 (HeLa cells; PKIS compound screen): 0.32; z-scoreHeLa rep 3 (HeLa cells; PKIS compound screen): 1.49
CC(C)(C)c1ccc2nccc(Nc3cccc(O)c3)c2c1 [GW856795X]	14.7	17.0	17.5	-0.72	-1.00	-0.46	-0.70	No	No	35017	26624	35940	0.00181	2.26							z-scoreHeLa rep 2 (HeLa cells; [6]): -1.52; z-scoreHeLa rep 3 (HeLa cells; [6]): -0.73; cell death (HeLa cells; [7]): No
CC(C)c1nc(-c2cccc(NS(=O)(=O)c3c(F)cccc3F)c2)c(-c2ccnc(Nc3ccc(N4CCOCC4)nc3)n2)s1 [GSK1723980B]	10.5	11.7	10.2							2167	1981	2206									effect (intracellular MRSA; Yes/No call from z-scoreMRSA+): Yes; hit (intracellular MRSA; [11]): Yes; z-scoreMRSA+ mean (intracellular MRSA; [12]): -3.23; z-scoreMRSA+ rep 1 (intracellular MRSA; [12]): -3.44; z-scoreMRSA+ rep 2 (intracellular MRSA; [12]): -2.65; z-scoreMRSA+ rep 3 (intracellular MRSA; [12]): -3.59; cell death (HeLa cells; Yes/No call from z-scoreHeLa): No; z-scoreHeLa mean (HeLa cells; [13]): -1.76; z-scoreHeLa rep 1 (HeLa cells; [13]): -1.58; z-scoreHeLa rep 2 (HeLa cells; [13]): -1.79; z-scoreHeLa rep 3 (HeLa cells; [13]): -1.92
Fc1cccc(COc2ccc(Nc3ncnc4sc(-c5ccc[nH]5)cc34)cc2Cl)c1 [GW707818B]															24.9	22.3	25.1	5915	6344	7651	effect (intracellular MRSA; Yes/No call from z-scoreMRSA+): No; hit (intracellular MRSA; [11]): No; z-scoreMRSA+ mean (intracellular MRSA; [12]): 0.24; z-scoreMRSA+ rep 1 (intracellular MRSA; [12]): -0.09; z-scoreMRSA+ rep 2 (intracellular MRSA; [12]): -0.0758; z-scoreMRSA+ rep 3 (intracellular MRSA; [12]): 0.87; cell death (HeLa cells; Yes/No call from z-scoreHeLa): No; z-scoreHeLa mean (HeLa cells; [13]): 1.41; z-scoreHeLa rep 1 (HeLa cells; [13]): 1.13; z-scoreHeLa rep 2 (HeLa cells; [13]): 1.57; z-scoreHeLa rep 3 (HeLa cells; [13]): 1.52
CN(C)c1cc2c(Nc3ccc4nc(Cc5ccccc5)[nH]c4c3)ncnc2cn1 [GW301888X]								No							27.0	27.6	26.1	6836	7361	6557	effect (intracellular MRSA; [8]): No; z-scoreMRSA+ mean (intracellular MRSA; PKIS compound screen): 0.0238; z-scoreMRSA+ rep 1 (intracellular MRSA; PKIS compound screen): -0.0117; z-scoreMRSA+ rep 2 (intracellular MRSA; PKIS compound screen): 0.30; z-scoreMRSA+ rep 3 (intracellular MRSA; PKIS compound screen): -0.22; cell death (HeLa cells; [8]): No; z-scoreHeLa mean (HeLa cells; PKIS compound screen): 0.66; z-scoreHeLa rep 1 (HeLa cells; PKIS compound screen): 0.47; z-scoreHeLa rep 2 (HeLa cells; PKIS compound screen): 0.90; z-scoreHeLa rep 3 (HeLa cells; PKIS compound screen): 0.61
O=c1cc(N2CCOCC2)nc2n(Cc3cccc(Cl)c3Cl)c(C3CC3)nn12 [GSK2358994A]	12.1	13.2	14.9	-1.74	-1.78	-1.70	-1.73	No	No	42747	35107	37884	2.50	2.13							z-scoreHeLa rep 2 (HeLa cells; [6]): 1.69; z-scoreHeLa rep 3 (HeLa cells; [6]): 3.69; cell death (HeLa cells; [7]): No
COc1ccc(Nc2nccc(N3CCC(NC(=O)Nc4cccc(C(C)=O)c4)C3)n2)cc1 (stereo not shown) [GSK1379731A]	20.9	21.1	24.3	0.62	0.57	0.46	0.84	No	No	33897	29436	19502	0.48	0.63	29.8	28.2	27.3	8450	7898	6635	effect (intracellular MRSA; [8]): No; z-scoreMRSA+ mean (intracellular MRSA; PKIS compound screen): 0.32; z-scoreMRSA+ rep 1 (intracellular MRSA; PKIS compound screen): 0.53; z-scoreMRSA+ rep 2 (intracellular MRSA; PKIS compound screen): 0.41; z-scoreMRSA+ rep 3 (intracellular MRSA; PKIS compound screen): 0.00589; z-scoreHeLa rep 2 (HeLa cells; [6]): 0.71; z-scoreHeLa rep 3 (HeLa cells; [6]): 0.11; cell death (HeLa cells; [8]): No; cell death (HeLa cells; [7]): No; z-scoreHeLa mean (HeLa cells; PKIS compound screen): 1.12; z-scoreHeLa rep 1 (HeLa cells; PKIS compound screen): 1.44; z-scoreHeLa rep 2 (HeLa cells; PKIS compound screen): 1.25; z-scoreHeLa rep 3 (HeLa cells; PKIS compound screen): 0.66
